Where “and” joins values, the source holds several entries; their conditions need not be identical. Equal values may be shown once.
Legend:
[1] = Combinatorial DSC and 1H NMR (qNMR) thermal decomposition; assay type: physicochemical; details: quench-cooled
Method: A Bruker® Ultrashield 400 MHz NMR was used for NMR spectroscopy. All samples were prepared using deuterated water. For ^1H NMR spectra acquisition, 256 scans were used. A relative quantitative NMR (qNMR) method was established and validated by comparing the integral values of NR chemical shift peaks to the integral values of the peaks of Nam. The integral of a peak is directly proportional to the number of nuclei the peak represents and the molar concentration of the compound in the sample ([14]). The percentage of NR was calculated using Equation 2 (modified from the literature), where INR H2 and INam H2 were the integral values of the singlet of NR H2 at 9.6 ppm and the singlet for Nam H2 at 8.6 ppm, respectively. N represents the number of nuclei (protons) that contribute to each peak. In this case, N = 1 for both NR H2 and Nam H2 peaks as they represent one proton each.
% NR in smaple=(INR H2/NNR H2)/(INR H2/NNR H2)+(INam H2/NNam H2)×100 Equation 2
DSC was used in conjunction with ^1H NMR spectroscopy to assess NR stability at certain temperatures and confirm compositional change throughout the entire thermal degradation process. […] This was then repeated in pans with no lids and these pans were then put in 1mL of D2O until all the contents were fully dissolved. The resulting D2O solutions were then subjected to ^1H NMR analysis, as previously detailed, to assess the stability of NRCl at each stage of its melting motif.

[2] = set-up: method as in PMID 26791540; details: cited from earlier work
[3] = Degradation kinetics of NRCl in aqueous solutions (Arrhenius); assay type: physicochemical; details: for activation energy Ea of degradation: 55, 65, 75°C, n = 5
Method: NRCl degradation products and mechanism were determined and confirmed using ^1H NMR. NRCl degradation kinetics in aqueous solution was determined using three pH environments: pH 2.0, 5.0, and 7.4 (each with a constant ionic strength of 0.3M adjusted using NaCl), and three experimental temperature conditions, namely, 55°C, 65°C, and 75°C, respectively. In all cases, five replicates were used for pH–temperature combinations and each was an individual, sealed, and labelled glass vial with 20mL of the respective buffer. For each experiment, these vials were left overnight to equilibrate to the respective temperature environment in a temperature-controlled oven. At the start of each experiment, the vials were removed and a stock solution of NR was added. Aliquots were then extracted from each vial at this point for a t = 0 and the vials were placed back into the oven until the next time point. The sampling intervals were every 2, 1, and 0.5 h for 55°C, 65°C, and 75°C, respectively, and a total of five time points were used for each individual vial. When an aliquot was removed, it was dispensed into a 2mL micro tube and placed in ice to quench the reaction until preparation for HPLC analysis.

mammalian cell lines = tested on: mammalian cell lines; set-up: method as in PMID 18052316; details: cited from earlier work
[4] = Aqueous solubility determination; assay type: physicochemical; details: for solubility at 24 h: aqueous buffer, thermodynamic from solid
Method: Three pH environments, namely pH 2.0, 5.0, and, 7.4, were used to determine the aqueous solubility of NR. Each buffer was added to a glass vial and stored at 4°C prior to the experiments. NRCl powder was then slowly added over a 24-h-periodunder constant mixing until the solution was clearly saturated (visual observation, n = 3). Aliquots were then drawn from each vial and passed through a 0.22 μm syringe filter unit (Millipore, Merck, USA). Samples were then analysed using the validated HPLC method.

human blood NAD+ = tested on: human blood NAD+; set-up: method as in PMID 27721479; details: after one single oral dose; cited from earlier work
[5] = NRCl stability in simulated gastrointestinal fluids; assay type: physicochemical
Method: NRCl powder was tested under simulated GI conditions to assess the stability of the raw material in fluids relevant to the GI physiology. These experiments were carried out using a Copley™ dissolution bath equipped with the USP II paddle apparatus at a stirring rate of 75rpm and a temperature of 37°C± 0.1°C. Five dissolution media were tested (Table 2). 0.1N HCl, USP simulated gastric fluid without pepsin (USP SGFW/O pepsin), and USP simulated gastric fluid with pepsin (USP SGF) were used to simulate the stomach environment. Phosphate standard buffer (Int. Pharm. SIF) and simulated intestinal fluid pH 6.8 (USP SIF) were used to simulate the intestinal environment. A 24-h simulation was also performed using the USP prolonged release (USP PR) method whereby for the first 2 h of the experiment the NRCl was added to 750 mL 0.1N HCl. Subsequently, 250 mL of 0.2M trisodium phosphate was added and pH adjusted to pH 6.8 for the remaining 22 h. This step-change pH model simulates the pH change in traversing from the stomach to the intestine ([15]).

[6] = Experimental determination of pKa by UV spectroscopy; assay type: physicochemical; details: NaOH solutions; first focused experiment, pH range 11.0–12.2
Method: NR stock solution was added to nine respective buffer solutions ranging from pH 1.5 to 12.8 and analysed by UV spectroscopic scanning over 200–500 nm using a Cary 50 scan UV-visible spectrophotometer (Agilent Technologies, USA). […] Equation 1 is a modified Beers–Lambert and Henderson–Hasselbalch equation ([14]). This was used to calculate pKa. AI is the absorbance of the ionised species, AM is the absorbance of the molecular species, and A is the absorbance at any given pH. The same method as above was then repeated using the same parameters and equipment for a duplicate result.
pKa=pH+logAI−A/A−AM Equation 1

Sirtuin (SIRT) = tested on: Sirtuin (SIRT); set-up: method as in PMID 12297502, PMID 14522996, PMID 12899610; details: cited from earlier work

Compound: NC(=O)c1ccc[n+]([C@@H]2O[C@H](CO)[C@@H](O)[C@H]2O)c1 [NR, Nicotinamide riboside]
- degradation (qNMR) ([1]; solid heated to 115°C): 2%
- degradation (qNMR) ([1]; solid heated to 120°C): 7%
- degradation (qNMR) ([1]; solid heated to 125°C): 55%
- share of the sample that was NR (qNMR) ([1]; solid heated to 140°C): 0.45%
- lowest adverse effect level [2]: 1,000 mg/kg/day
- no-observed-adverse-effect level (NOAEL) [2]: 300 mg/kg/day
- pre-exponential factor A of degradation ([3]; pH 2.0): 4.8e+10 min⁻¹
- activation energy Ea of degradation ([3]; pH 2.0): 75.4 (±2.9) kJ/mol and 75.4 kJ/mol
- pre-exponential factor A of degradation ([3]; pH 5.0): 3.2e+10 min⁻¹
- activation energy Ea of degradation ([3]; pH 5.0): 76.9 (±1.1) kJ/mol and 76.9 kJ/mol
- pre-exponential factor A of degradation ([3]; pH 7.4): 1.8e+12 min⁻¹
- activation energy Ea of degradation ([3]; pH 7.4): 82.8 kJ/mol
- increase in the degradation rate for every 10°C temperature elevation ([3]; same pH environment): approximate twofold increase
- increase of available NAD+ (mammalian cell lines): up to twofold

Compound: NC(=O)c1ccc[n+]([C@@H]2O[C@H](CO)[C@@H](O)[C@H]2O)c1 [NRCl, nicotinamide riboside chloride]
- degradation (qNMR) ([1]; solid heated to 115°C): completely intact
- change of degradation rate on raising the pH value from 5.0 to 7.4 ([3]; at each respective temperature): doubled
- activation energy Ea of degradation ([3]; pH 7.4): 82.8 (±4.4) kJ/mol
- solubility class according to the USP definitions ([4]; all three tested pH environments (2.0, 5.0, 7.4), freely soluble = 100–1,000 mg/mL): freely soluble
- solubility at 24 h ([4]; pH 7.4, aqueous buffer): 826 ± 34.4 mg/mL
- solubility at 24 h ([4]; pH 2.0): 972.7 ± 8.1 mg/mL
- solubility at 24 h ([4]; pH 5.0): 860 ± 31 mg/mL
- increase in human blood NAD+ (human blood NAD+): more than twofold
- NRCl remaining ([5]; 0.1N HCl pH 1.2, 37°C, 75rpm, after 2 h): 97.64 ± 0.08%
- NRCl remaining ([5]; 24-h GI simulation (USP PR, pH 1.2 then 6.8 after 2 h), after 8 h): 90.51 ± 0.82%
- NRCl remaining ([5]; Int. Pharm. SIF pH 6.8, 37°C, after 2 h): 94.32 ± 1.16%
- NRCl remaining ([5]; Int. Pharm. SIF pH 6.8, 37°C, after another 2 h (4 h)): 92.71 ± 0.81%
- NRCl remaining ([5]; USP SGF (with pepsin) pH 1.2, 37°C, 75rpm, after 2 h): 97.17 ± 0.19%
- NRCl remaining ([5]; USP SGF without pepsin pH 1.2, 37°C, 75rpm, after 2 h): 98.59 ± 0.10%
- NRCl remaining ([5]; USP SIF pH 6.8, 37°C, after 2 h): 94.71 ± 2.66%
- NRCl remaining ([5]; USP SIF pH 6.8, 37°C, after another 2 h (4 h)): 93.54 ± 2.37%
- pKa [6]: 11.5 ± 0.2

Compound: NC(=O)c1cccnc1 [Nam, Nicotinamide]
- Sirtuin (SIRT) inhibition (Sirtuin (SIRT)): known Sirtuin (SIRT) inhibitor

— PMC6878970, “Understanding the physicochemical properties and degradation kinetics of nicotinamide riboside, a promising vitamin B3nutritional supplement” (Food & Nutrition Research, 2019)
